In one experiment the target is T1, SHP2 enzyme (catalytic domain, amino acid sequence 224-528) (Homo sapiens, UniProt Q06124).
T1 construct: purchased GenScript
T1 sequence (Q06124 224-528): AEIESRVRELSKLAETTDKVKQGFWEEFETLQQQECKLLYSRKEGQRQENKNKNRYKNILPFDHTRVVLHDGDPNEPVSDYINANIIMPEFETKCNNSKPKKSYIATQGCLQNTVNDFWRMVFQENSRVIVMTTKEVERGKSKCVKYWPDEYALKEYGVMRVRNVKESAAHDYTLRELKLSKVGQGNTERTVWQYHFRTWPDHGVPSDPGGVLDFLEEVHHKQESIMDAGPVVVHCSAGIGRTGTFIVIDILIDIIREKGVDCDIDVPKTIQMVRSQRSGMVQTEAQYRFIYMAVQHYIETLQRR
Nature of the experiment: SHP2 enzyme inhibition assay (DiFMUP substrate, fluorescence). Format: biochemical. The note with it: SHP2 catalytic domain, DiFMUP substrate, 30 min pre-incubation; read-out: S HP2 I C50. A digest of the protocol:
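SHP2 catalytic domain (aa 224-528) preincubated 30 min at room temperature with compounds (10-point 3-fold series) in HEPES pH 7.2 buffer with NaCl, EDTA, DTT, BSA, Brij35. DiFMUP from 50 µM working solution added, 5 min reaction; fluorescence 340/450 nm; IC50 from nonlinear dose-response fit.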
`O=C(Nc1ccc(-c2ccsc2)cc1)C(=O)Nc1ccc(-c2sc3cc(F)c(-c4nnn[nH]4)cc3c2C2CCC2)cc1` [Example 133]: the IC50 was found to be 69 nM.
Consider `O=C(Nc1ccc(-c2cc3cc(F)c(-c4nnn[nH]4)cc3n2C2CCC2)cc1)C(=O)Nc1ccc(N2CCOCC2)cc1` [Example 47], for which the IC50 was found to be 63 nM.
Regarding `O=C(Nc1ccc(-c2ccsc2)cc1)C(=O)Nc1ccc(-c2cc3ccc(-c4nnn[nH]4)nc3n2C2CCC2)cc1` [Example 129], the IC50 turned out to be 59 nM.
As to `O=C(Nc1ccc(-c2ccsc2)cc1)C(=O)Nc1ccc(-c2oc3cc(F)c(-c4nnn[nH]4)cc3c2C2CCC2)cc1` [Example 130], the IC50 turned out to be 25 nM.
Take `CC1(O)CCC2(CCN(c3ccc(NC(=O)C(=O)Nc4ccc(-c5cc6cc(F)c(-c7nnn[nH]7)cc6n5C5(C)CCC5)cc4)cc3)CC2)CC1` [Example 111]: the IC50 is 94 nM.
For `CC1(n2c(-c3ccc(NC(=O)C(=O)Nc4ccc(N5CCC6(CC5)CC(CO)C6)cc4)cc3)cc3cc(F)c(-c4nnn[nH]4)cc32)CCC1` [Example 97], the IC50 is 105 nM.
Regarding `O=C(Nc1ccc(-c2ccsc2)cc1)C(=O)Nc1ccc(-c2cc3cc(F)c(-c4nnn[nH]4)cc3n2C2CCC2)cc1` [Example 4], the IC50 came out at 29 nM.
As to `Cn1c(-c2cccc(NC(=O)C(=O)Nc3ccc(-c4ccsc4)cc3)c2)c(I)c2cc(C(=O)O)c(O)cc21` [Example 11a-1, reference compound], the IC50 was 108 nM.
On the same count and under the same terms, the same measure for `CC1(O)CC2CN(c3ccc(NC(=O)C(=O)Nc4ccc(-c5cc6cc(F)c(-c7nnn[nH]7)cc6n5C5CCC5)cc4)cc3)CC2C1` (stereo not drawn) [Example 117]: 71 nM; for `CC1(n2c(-c3ccc(NC(=O)C(=O)Nc4ccc(N5CCC6(CCC(O)C6)CC5)cc4)cc3)cc3cc(F)c(-c4nnn[nH]4)cc32)CCC1` (stereo not drawn) [Example 101]: 23 nM.
The same measure, in the same setting: the same measure for `O=C(Nc1ccc(-c2ccsc2)cc1)C(=O)Nc1ccc(-c2cc3cc(F)c(-c4nnn[nH]4)nc3n2C2CCC2)cc1` [Example 132]: 27 nM.
With `O=C(Nc1ccc(-c2cc3cc(F)c(-c4nnn[nH]4)cc3n2C2CCC2)cc1)C(=O)Nc1ccc(N2CCC3(CC2)CC(CO)C3)cc1` [Example 96], the IC50 came to 58 nM.
`O=C(Nc1ccc(-c2ccsc2)cc1)C(=O)Nc1ccc(-c2cc3ccc(-c4nnn[nH]4)cc3n2C2CCC2)cc1` [Example 122]: the IC50 was found to be 66 nM.
The same measure, in the same setting: under `O=C(Nc1ccc(-c2ccsc2)cc1)C(=O)Nc1ccc(-c2cc3cc(F)c(-c4nnn[nH]4)c(F)c3n2C2CCC2)cc1` [Example 134] stands 69 nM; under `O=C(Nc1ccc(-c2ccsc2)cc1)C(=O)Nc1ccc(-c2cc3cnc(-c4nnn[nH]4)nc3n2C2CCC2)cc1` [Example 131], 26 nM; under `O=C(Nc1ccc(-c2cc3cc(F)c(-c4nnn[nH]4)cc3n2C2CCC2)cc1)C(=O)Nc1ccc(N2CCC(CO)CC2)cc1` [Example 23], 102 nM.

Still in this experiment, the particulars now being: relative to 11a-1, IC50 = 0.108 µM.
Consider `O=C(Nc1ccc(-c2ccsc2)cc1)C(=O)Nc1ccc(-c2cc3cc(F)c(-c4nnn[nH]4)cc3n2C2CCC2)cc1` [Example 4], for which the “SHP2 IC50 times lower than control compound 11a-1” value is reported as 3-4 times.
Same read-out and setting: the same measure for `CC1(n2c(-c3ccc(NC(=O)C(=O)Nc4ccc(N5CCC6(CCC(O)C6)CC5)cc4)cc3)cc3cc(F)c(-c4nnn[nH]4)cc32)CCC1` (stereo not drawn) [Example 101]: 3-4 times.

The next experiment deals with KYSE520. Nature of the experiment: CellTiter-Glo cell proliferation inhibition, KYSE520. The experiment is classed as cell-based, human. The note with it: Homo sapiens, KYSE-520; KYSE520 cells, 120 hours, CellTiter-Glo. The text has this:
In this study, the CellTiter-Glo® Luminescent Cell Viability Assay kit from Promega was used to evaluate the inhibitory effects of the disclosed compounds on the proliferation of cell lines KYSE520 (a human esophageal squamous cell carcinoma cell line dependent on SHP2 for growth), MeWo (a human malignant melanoma cell line), and MV4-11 (an RTK-mutant human acute monocytic leukemia cell line).
KYSE520 cells (Nanjing Kebaio Biotechnology Co., Ltd., Catalog #CBP60658) were thawed by rapidly shaking the cryovial in a 37 °C water bath to thaw within 1 minute. The thawed cell suspension was mixed homogeneously with RPMI 1640 medium (HyClone, Catalog #SH30027.01) containing 10% FBS (ExCell, Catalog #FND500), centrifuged at 1000 rpm for 5 minutes, and the supernatant was discarded. The cell pellet was resuspended in 5 mL of complete culture medium (RPMI 1640 medium containing 10% FBS) and placed in a cell culture flask with 25 cm^2 of bottom area, then cultured in a cell culture incubator at 37 °C, 95% humidity, and 5% CO2. Cell passaging was performed when the cell confluence reached approximately 80%. During cell passaging, the old culture medium was discarded, the cells were washed once with DPBS (Thermo Fisher, Catalog #14190-144), and 1 mL of trypsin (Thermo Fisher, Catalog #25200072) was added to digest the cells. When the cells dispersed into single cells and detached from the bottom of the culture flask, 3 mL of fresh complete culture medium was added to stop the digestion. After gently pipetting the cell suspension, 1/5 of the cell suspension was retained, 5 mL of fresh complete culture medium was added, and after mixing, the cells were placed in a cell culture flask for further culture. Cell plating was performed when the cell confluence again reached approximately 80%. During cell plating, following the cell passaging method, 1/5 of the cell suspension was retained for continued culture, and the remaining 4/5 of the cell suspension was placed in a 15 mL centrifuge tube. Cell viability was determined using the trypan blue exclusion method to ensure that cell viability was above 90%. A cell suspension with a density of 2.22 × 10^4 cells/mL was prepared using complete culture medium, and 135 µL of the cell suspension was added to a 96-well transparent flat-bottom black-walled cell culture plate (Greiner, Catalog #655090), resulting in a cell density of 3000 viable cells per well. A control group containing only complete culture medium without cells and compounds (i.e., culture medium control) and a control group containing cells but no compound (i.e., cell control) were set up. The cell plates were incubated overnight in a cell culture incubator. First, a 10 mM stock solution of the compound (Example compound and positive control compound 11a-1) in DMSO (Damas-beta, catalog #75927R) was serially diluted 3-fold to the 9th concentration, and a 10th concentration containing only DMSO (without compound) was also prepared as a control. Then, the DMSO solutions containing different concentrations of the compound were diluted 100-fold with complete culture medium, resulting in a 1% DMSO concentration in each solution. Finally, 15 µL of each solution was added to the corresponding wells of the cell culture plate, resulting in a starting compound concentration of 10 µM, with a 3-fold dilution between adjacent concentrations, and a final DMSO concentration of 0.1% in the cell culture plate. The cell plates were then incubated in the cell culture incubator for another 120 hours.
For endpoint detection, CellTiter-Glo reagent (Promega, catalog number #G7573, CellTiter-Glo® Luminescent Cell Viability Assay Kit) was melt and each cell plate was moved to room temperature for equilibration for 30 minutes. 75 µL (KYSE520 cells) or 50 µL (MeWo cells and MV 4-11 cells) of CellTiter-Glo was added to each well of the corresponding cell plate. The plates were shaken on a track-mounted shaker for 2 minutes to fully lyse the cells. […]
For the compound `O=C(Nc1ccc(-c2ccsc2)cc1)C(=O)Nc1ccc(-c2sc3cc(F)c(-c4nnn[nH]4)cc3c2C2CCC2)cc1` [Example 133], the IC50 amounted to 0.688 µM.
Same read-out and setting: under `O=C(Nc1ccc(-c2ccsc2)cc1)C(=O)Nc1ccc(-c2cc3ccc(-c4nnn[nH]4)nc3n2C2CCC2)cc1` [Example 129] stands 2.85 µM; under `O=C(Nc1ccc(-c2ccsc2)cc1)C(=O)Nc1ccc(-c2oc3cc(F)c(-c4nnn[nH]4)cc3c2C2CCC2)cc1` [Example 130], 0.422 µM; under `CC1(O)CCC2(CCN(c3ccc(NC(=O)C(=O)Nc4ccc(-c5cc6cc(F)c(-c7nnn[nH]7)cc6n5C5(C)CCC5)cc4)cc3)CC2)CC1` [Example 111], 0.105 µM.
With `CC1(n2c(-c3ccc(NC(=O)C(=O)Nc4ccc(N5CCC6(CC5)CC(CO)C6)cc4)cc3)cc3cc(F)c(-c4nnn[nH]4)cc32)CCC1` [Example 97], the IC50 was found to be 0.095 µM.
The same measure, in the same setting: the same measure for `Cn1c(-c2cccc(NC(=O)C(=O)Nc3ccc(-c4ccsc4)cc3)c2)c(I)c2cc(C(=O)O)c(O)cc21` [Example 11a-1, reference compound]: 1.23 µM; for `CC1(O)CC2CN(c3ccc(NC(=O)C(=O)Nc4ccc(-c5cc6cc(F)c(-c7nnn[nH]7)cc6n5C5CCC5)cc4)cc3)CC2C1` (stereo not drawn) [Example 117]: 0.104 µM.
Turning to `CC1(n2c(-c3ccc(NC(=O)C(=O)Nc4ccc(N5CCC6(CCC(O)C6)CC5)cc4)cc3)cc3cc(F)c(-c4nnn[nH]4)cc32)CCC1` (stereo not drawn) [Example 101], the IC50 amounted to 0.128 µM.
Same read-out and setting: the same measure for `O=C(Nc1ccc(-c2ccsc2)cc1)C(=O)Nc1ccc(-c2cc3cc(F)c(-c4nnn[nH]4)nc3n2C2CCC2)cc1` [Example 132]: 1.1 µM; for `O=C(Nc1ccc(-c2cc3cc(F)c(-c4nnn[nH]4)cc3n2C2CCC2)cc1)C(=O)Nc1ccc(N2CCC3(CC2)CC(CO)C3)cc1` [Example 96]: 0.059 µM.
Still for that read-out and setting: the same measure for `O=C(Nc1ccc(-c2ccsc2)cc1)C(=O)Nc1ccc(-c2cc3ccc(-c4nnn[nH]4)cc3n2C2CCC2)cc1` [Example 122]: 4.36 µM; for `O=C(Nc1ccc(-c2ccsc2)cc1)C(=O)Nc1ccc(-c2cc3cc(F)c(-c4nnn[nH]4)c(F)c3n2C2CCC2)cc1` [Example 134]: 0.334 µM.
